This note sets out measurements from US11566007B2, “Ras inhibitors” (Revolution Medicines, Inc., priority 2019, dated 2023).

Each structure is given as a SMILES string.

Experiment [1] has as its system NCI-H358 cells (K-Ras G12C). As to the kind of experiment: Potency assay: pERK in NCI-H358 cells. Type of experiment: cell-based, human. The settings on record: Homo sapiens, NCI-H358; H358 KRAS G12C; read-out: pERK EC50. The essentials:
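Compounds are dosed as ten 3-fold dilutions from a 10 mM DMSO stock, in duplicate, and left on cells for 4 h at 37 °C, 5% CO2. Phospho-ERK1/2 is then quantified by AlphaLISA SureFire Ultra or In-Cell Western, and IC50 is derived from a 4-parameter sigmoid against log concentration.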

Another experiment relates to NCI-H358 (K-Ras G12C). As to the kind of experiment: CellTiter-Glo cell viability assay, NCI-H358. The settings on record: Homo sapiens, NCI-H358, 120 h, NCI-H358, 5-day treatment; class symbols; read-out: Additional H358 Cell Viability assay data (K-Ras G12C, IC50). Type of experiment: cell-based, human. The method, boiled down: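 Luminescent viability readout on day 5 after direct compound addition to plated cells; plates sat ~30 min at room temperature before reading. Values expressed as percent of mean DMSO signal, curves fit with a four-parameter logistic model.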

In the next experiment the target is KRAS G12V (Homo sapiens (Human), UniProt P01116+P62937, G12V). As to the kind of experiment: Ras-Raf (BRAF RBD) disruption / FRET / MOA assay, KRAS G12V. Type of experiment: biochemical. The settings on record: read-out: IC50* KRAS G12V FRET data. The method, boiled down: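 Ternary complex formation (Ras–compound–cyclophilin A) displacing BRAF RBD, monitored by TR-FRET. Three hours at 25° C with compound (top 30 μM final), then 1.5 h with the labelled antibodies. Lower ratio than DMSO indicates disruption; IC50 reported.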

A further experiment concerns the target NRAS WT (Homo sapiens (Human), UniProt P01111+P62937). As to the kind of experiment: Ras-Raf (BRAF RBD) disruption / FRET / MOA assay, NRAS WT. Type of experiment: biochemical. The settings on record: read-out: IC50* NRAS WT FRET data. The method, boiled down:
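Compounds were tested as a 10-point 3-fold dilution series from 30 μM final for their ability to drive ternary complex formation between nucleotide-loaded Ras and cyclophilin A, displacing the BRAF RBD. After 3 h at 25° C., anti-His Eu-W1024 (10 nM) and anti-GST allophycocyanin (50 nM) were added for 1.5 h. A TR-FRET ratio decrease versus DMSO gave IC50.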

Chain of KRAS G12V (P01116-2 other isoform, or with tags, fused parts or gaps G12V): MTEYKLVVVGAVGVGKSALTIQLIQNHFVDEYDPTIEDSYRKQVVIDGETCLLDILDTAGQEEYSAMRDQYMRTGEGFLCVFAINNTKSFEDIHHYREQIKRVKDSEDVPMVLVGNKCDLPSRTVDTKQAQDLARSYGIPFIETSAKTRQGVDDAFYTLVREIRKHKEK
Chain of KRAS G12V (P62937 whole entry): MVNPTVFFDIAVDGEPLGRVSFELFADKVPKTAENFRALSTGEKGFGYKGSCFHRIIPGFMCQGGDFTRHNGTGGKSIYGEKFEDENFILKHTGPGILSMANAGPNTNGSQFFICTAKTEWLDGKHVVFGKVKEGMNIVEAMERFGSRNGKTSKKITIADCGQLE
Chain of NRAS WT (P01111 whole entry): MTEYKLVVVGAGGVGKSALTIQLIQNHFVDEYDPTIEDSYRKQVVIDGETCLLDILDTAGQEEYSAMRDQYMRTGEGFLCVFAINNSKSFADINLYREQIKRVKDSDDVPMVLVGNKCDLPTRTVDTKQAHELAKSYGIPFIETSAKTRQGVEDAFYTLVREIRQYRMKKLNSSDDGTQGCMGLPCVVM
Chain of NRAS WT (P62937 whole entry): as the sequence (P62937 whole entry) above

One may read the EC50 as the concentration that produces a half-maximal response. The IC50 is the concentration that gives 50% inhibition. For the compound `C=CC(=O)N1CCC[C@H]2CN(C(=O)N(C)[C@H](C(=O)N[C@H]3Cc4nc(cs4)-c4ccc5c(c4)c(c(-c4cccnc4[C@H](C)OC)n5CC)CC(C)(C)COC(=O)[C@@H]4CCCN(N4)C3=O)C(C)C)C[C@H]21` (atropisomer, axis not shown) [Example A618], in experiment [1], the EC50 is less than 5000 nM. Also, the IC50 in the experiment on NCI-H358 (K-Ras G12C) lay within 10 to 100 nM; on KRAS G12V, 100 to 1000 nM; on NRAS WT it was 100 to 1000 nM.
In the case of `CCn1c(-c2cccnc2[C@H](C)OC)c2c3cc(ccc31)-c1csc(n1)C[C@H](NC(=O)[C@H](C(C)C)N(C)C(=O)N1C[C@@H]3CN(C(=O)C#CC(C)(C)N(C)C)CC[C@@H]31)C(=O)N1CCC[C@H](N1)C(=O)OCC(C)(C)C2` (atropisomer, axis not shown) [Example A625], in experiment [1], the concentration giving a half-maximal response (EC50) was less than 5000 nM. In addition, the IC50 with NCI-H358 (K-Ras G12C) was in the range of 10 to 100 nM; at KRAS G12V it was 100 to 1000 nM; at NRAS WT, 100 to 1000 nM.
Turning to `C=CC(=O)N(C)[C@H]1CN(C(=O)N(C)[C@H](C(=O)N[C@H]2Cc3nc(cs3)-c3ccc4c(c3)c(c(-c3cccnc3[C@H](C)OC)n4CC)CC(C)(C)COC(=O)[C@@H]3CCCN(N3)C2=O)C(C)C)C[C@@H]1F` (atropisomer, axis not shown) [Example A632], in experiment [1], the half-maximal effective concentration (EC50) is less than 5000 nM. The IC50 in the experiment with NCI-H358 (K-Ras G12C), at KRAS G12V and at NRAS WT was 100 to 1000 nM each time.
Regarding `C=CC(=O)N(C)[C@@H]1C[C@H](C)N(C(=O)N(C)[C@H](C(=O)N[C@H]2Cc3nc(cs3)-c3ccc4c(c3)c(c(-c3cccnc3[C@H](C)OC)n4CC)CC(C)(C)COC(=O)[C@@H]3CCCN(N3)C2=O)C(C)C)C1` (atropisomer, axis not shown) [Example A633], in experiment [1], the 50% effective concentration (EC50) is less than 5000 nM. Besides, the IC50 in the experiment on NCI-H358 (K-Ras G12C) was in the range of 10 to 100 nM; at KRAS G12V it was 100 to 1000 nM; on NRAS WT, 10 to 100 nM.
Take `C=CC(=O)N(C)[C@@H]1C[C@@H](C)N(C(=O)N(C)[C@H](C(=O)N[C@H]2Cc3nc(cs3)-c3ccc4c(c3)c(c(-c3cccnc3[C@H](C)OC)n4CC)CC(C)(C)COC(=O)[C@@H]3CCCN(N3)C2=O)C(C)C)C1` (atropisomer, axis not shown) [Example A634]: in experiment [1], the 50% effective concentration (EC50) is less than 5000 nM. Further, the IC50 was in the range of 10 to 100 nM in the experiment with NCI-H358 (K-Ras G12C), 100 to 1000 nM at KRAS G12V and 100 to 1000 nM at NRAS WT.
With `C=CC(=O)N1CCCC2(CCN(C(=O)N(C)[C@H](C(=O)N[C@H]3Cc4nc(cs4)-c4ccc5c(c4)c(c(-c4cccnc4[C@H](C)OC)n5CC)CC(C)(C)COC(=O)[C@@H]4CCCN(N4)C3=O)C(C)C)CC2)C1` (atropisomer, axis not shown) [Example A635], in experiment [1], the EC50 is less than 5000 nM. In addition, the IC50 in the experiment on NCI-H358 (K-Ras G12C), at KRAS G12V and on NRAS WT was 100 to 1000 nM throughout.
In the case of `C=CC(=O)N1CC2(CCN2C(=O)N(C)[C@H](C(=O)N[C@H]2Cc3cccc(n3)-c3ccc4c(c3)c(c(-c3cccnc3[C@H](C)OC)n4CC)CC(C)(C)COC(=O)[C@@H]3CCCN(N3)C2=O)C(C)C)C1` (atropisomer, axis not shown) [Example A636], the concentration giving a half-maximal response (EC50) in experiment [1] is less than 5000 nM. The IC50 with NCI-H358 (K-Ras G12C) is less than 10 nM; at KRAS G12V it was 1000 to 10000 nM; at NRAS WT it was 100 to 1000 nM.
The matching figures for `CCn1c(-c2cccnc2[C@H](C)OC)c2c3cc(ccc31)-c1csc(n1)C[C@H](NC(=O)C[C@@H](C)OC1CN(C(=O)C#CC(C)(C)N(C)C)C1)C(=O)N1CCC[C@H](N1)C(=O)OCC(C)(C)C2` (atropisomer, axis not shown) [Example A638]: less than 5000 nM, 10 to 100 nM, 1000 to 10000 nM and 1000 to 10000 nM.
The matching figures for `C=CC(=O)N1CC[C@H](C(=O)N(C)[C@H](C(=O)N[C@H]2Cc3cccc(c3)-c3ccc4c(c3)c(c(-c3cccnc3[C@H](C)OC)n4CC)CC(C)(C)COC(=O)[C@@H]3CCCN(N3)C2=O)[C@@H](C)C(F)(F)F)C1` (atropisomer, axis not shown) [Example A640]: less than 5000 nM, 10 to 100 nM, 1000 to 10000 nM and 1000 to 10000 nM.
